# Results: patent EP4335840A1, “NEW CONTRAST AGENTS FOR USE IN DIAGNOSTIC IMAGING” (priority 2022, dated 2024)
# How the values were obtained:
# OATP1B1 = target: T1, OATP1B1 (Homo sapiens, UniProt Q9Y6L6); assay: Uptake into stable transfected OATP1B1 HEK 293 cells; assay type: cell-based; details: OATP1B1-HEK 293 cell uptake with Rifampicine
# T1 sequence (Q9Y6L6 1-691): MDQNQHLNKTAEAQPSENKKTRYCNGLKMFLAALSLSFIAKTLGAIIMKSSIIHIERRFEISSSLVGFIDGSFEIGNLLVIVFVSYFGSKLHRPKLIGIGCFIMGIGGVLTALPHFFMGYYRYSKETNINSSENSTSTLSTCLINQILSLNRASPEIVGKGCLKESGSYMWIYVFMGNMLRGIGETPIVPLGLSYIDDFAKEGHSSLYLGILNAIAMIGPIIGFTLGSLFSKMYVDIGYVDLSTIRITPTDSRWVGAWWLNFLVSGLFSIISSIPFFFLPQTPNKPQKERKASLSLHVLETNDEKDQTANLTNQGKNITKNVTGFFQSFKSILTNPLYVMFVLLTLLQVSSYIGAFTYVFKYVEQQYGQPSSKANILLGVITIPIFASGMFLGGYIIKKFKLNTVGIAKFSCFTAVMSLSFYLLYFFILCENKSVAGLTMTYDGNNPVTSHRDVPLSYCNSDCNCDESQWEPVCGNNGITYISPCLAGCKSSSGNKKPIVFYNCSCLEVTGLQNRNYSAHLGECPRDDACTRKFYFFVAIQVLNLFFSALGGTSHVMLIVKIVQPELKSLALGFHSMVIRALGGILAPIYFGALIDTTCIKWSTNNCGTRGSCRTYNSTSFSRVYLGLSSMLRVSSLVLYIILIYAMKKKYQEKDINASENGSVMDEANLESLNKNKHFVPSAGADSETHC
# [1] = No-observed-adverse-effect level (NOAEL), intravenous bolus; details: mice, intravenous bolus via tail vein, dose levels up to 2.5 mmol Gd/kg bw
# [2] = Relaxivity measurements at 1.41 T in water and human plasma; assay type: physicochemical; details: 37°C, normalized to Gd
# Experimental: Relaxivity measurements at 1.41 T were performed using a MiniSpec mq60 spectrometer (Bruker Analytik, Karlsruhe, Germany) operating at a resonance frequency of 60 MHz and a temperature of 37°C. The T1 relaxation times were determined using the standard inversion recovery (IR) method with a fixed relaxation delay of at least 5 × T1. The variable inversion time (TI) was calculated automatically by the standard software of the MiniSpec mq60 (8 steps). The T2 measurements were performed by using a Carr-Purcell-Meiboom-Gill (CPMG) pulse sequence, applying a relaxation delay of at least 5 × T1.
# Each relaxivity measurement was performed using three different Gd concentrations (3 concentrations between 0.05 and 2 mM). The T1 and T2 relaxation times of the example compounds 1 to 10 were measured in different media for example in water and human plasma. Human plasma preparation: For each experiment fresh blood was taken from a volunteer using 10 mL citrate-tubes (Sarstedt S-Monovette 02.1067.001, 10 mL, Citrate). The 10 mL citrate-tubes were carefully inverted 10 times to mix blood and anticoagulant and centrifuged for 15min at 1811 g at RT (Eppendorf, Centrifuge 5810R).
# The relaxivities ri (where i=1, 2) were calculated based on the measured relaxation rates Ri in water and plasma: ri = (Ri−Ri(0))/CGd [formula] where Ri(0) represent the relaxation rate of the respective solvent and CGd the concentration of the compound normalized to the Gadolinium. The Gadolinium concentrations of the investigated solutions were verified by Inductively Coupled Plasma Mass Spectrometry (ICP-MS Agilent 7500a, Waldbronn, Germany). Table 3: Relaxivities of investigated compounds in water and human plasma at 1.41 T and relaxivities of Reference compounds 1-3 (RC1-RC3) at 1.5 T in water and bovine plasma. All values are measured at 37°C and normalized to Gd and given in L mmol-1 s-1.
# [3] = Water solubility in aqueous buffer; assay type: physicochemical; details: aqueous buffer 10 mM Tris-HCl, pH 7.4, 20°C; Gd by ICP-MS
# Experimental: The exploratory water solubility of the compounds is determined at room temperature (20°C) in 0.5 mL buffer solution (10 mM Tris-HCI, pH 7.4) in the microcentrifuge tubes (Eppendorf, 2.0 mL safe-lock caps). The solid compounds were added stepwise to the buffer solution. More substance is added once all the suspended material is dissolved until an equilibrium between undissolved and dissolved substance is reached. The suspension was mixed using a shaker (Heidolph Reax 2000) and treated 5 min in an ultrasound bath (Bandelin, Sonorex Super RK255H). The Gadolinium concentration of the test substance in the clear solution is measured by ICP-MS. Table 1: Solubilities of compounds in aqueous buffer at 20°C (pH 7.4).
# [4] = Complex stability (transmetallation with Zn2+, proton relaxometry); assay type: physicochemical; details: 72 hours, 2.5 mM Zn2+, 26 mM phosphate buffer, 37°C, pH 7.4; 1.41 T
# Experimental: The used method is described elsewhere (Laurent S et al., Stability of MRI paramagnetic contrast media: a proton relaxometric protocol for transmetallation assessment. Invest Radiol. 2001 Feb;36(2):115-22). In brief: A solution containing 2.5 mmol/L of test compound and 2.5 mmol/L ZnCl2 in 26 mM phosphate buffer (KH2PO4 Merck; 1.09439.1000, #HC748513, pH 7,00), was incubated at 37°C over a period of at least 3 days. If test compounds are instable under these conditions, transmetallation during this test would lead to the formation of the Zn^2+ complex of the test item, while Gd^3+ is released and precipitated as highly insoluble GdPO4.
# After 3d of incubation T1 relaxation time was observed. […] Table 2: Transmetallation stability [%] of paramagnetic contrast agents over 72 hours (2.5 mM Zn2+, 26 mM phosphate buffer, 37°C, pH 7.4).
# OATP1B3 = target: T2, OATP1B3 (Homo sapiens, UniProt Q9NPD5); assay: Uptake into stable transfected OATP1B3 HEK 293 cells; assay type: cell-based; details: OATP1B3-HEK 293 cell uptake with Rifampicine
# T2 sequence (Q9NPD5 1-702): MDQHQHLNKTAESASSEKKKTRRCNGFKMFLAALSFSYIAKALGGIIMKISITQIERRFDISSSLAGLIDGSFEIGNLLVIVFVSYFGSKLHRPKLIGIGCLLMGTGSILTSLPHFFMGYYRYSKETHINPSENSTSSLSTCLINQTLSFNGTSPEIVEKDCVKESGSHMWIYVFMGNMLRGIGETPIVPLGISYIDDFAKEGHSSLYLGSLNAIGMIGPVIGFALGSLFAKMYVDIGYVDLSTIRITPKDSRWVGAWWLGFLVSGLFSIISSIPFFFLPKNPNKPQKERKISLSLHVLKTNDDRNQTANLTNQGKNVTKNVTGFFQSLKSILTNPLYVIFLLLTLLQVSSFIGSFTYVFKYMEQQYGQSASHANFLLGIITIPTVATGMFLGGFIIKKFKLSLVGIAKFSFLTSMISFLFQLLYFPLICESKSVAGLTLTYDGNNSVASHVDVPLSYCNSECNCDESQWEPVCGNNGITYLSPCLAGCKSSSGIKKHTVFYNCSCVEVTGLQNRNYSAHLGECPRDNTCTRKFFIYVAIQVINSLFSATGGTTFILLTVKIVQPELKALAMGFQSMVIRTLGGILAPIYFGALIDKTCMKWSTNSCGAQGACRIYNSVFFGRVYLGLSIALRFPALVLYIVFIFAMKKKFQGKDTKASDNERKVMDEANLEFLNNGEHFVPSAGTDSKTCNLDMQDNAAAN
# [5] = test system: freshly isolated rat hepatocytes; assay: Uptake into freshly isolated rat hepatocytes; details: rat hepatocyte uptake with OATP1B1/1B3 inhibitor Rifampicine, test item and inhibitor each 100 µM
# Experimental: The rat hepatocytes were incubated (2.5 ·10^5 cells/well) for 2.5 to 4h in collagen coated 24-well plates (Fa. Beckton Dickinson Biocoat, cell environments, Collagen I Cellware) in Williams E-medium (Fa. Sigma W1878) in an incubator (37°C, 5% CO2 and 95% oxygen). After incubation the adherent hepatocytes were washed once with 37°C Hepes carbonate transport buffer (500 µL/well). The test items and RC1 were prepared from stock solutions (180 to 500 mM concentration) in Hepes carbonate transport buffer at pH 7.4 to reach a final concentration of 100 µmοl Gd/L. The specific uptake of the test item or RC1 into rat hepatocytes via OATP1 B1 and OATP1 B3 was challenged using a known OATP1B1/1B3 inhibitor (Rifampicine, Fa. Sigma R3501, test item and inhibitor 1:1 each 100 µM final concentration). The prepared rat hepatocyte plates were incubated with test solutions (500 µL/well) at 37°C for 10 min using a thermoshaker (Fa. Grant Bio, PHMP). Triplicates were performed for each test item. After incubating the cells were washed once with cold PBS buffer (Fa. Gibco, Dulbeccos PBS (+)). After washing the intact hepatocytes were lysed by addition of 500 µL cold 0.01 % Triton-X 100 in Millipore water for 1h. […] After 1h 500 µL of 10 nM Terbium ICP-MS standard was added in 2% nitric acid and 0.01% Triton 100 before the Gadolinium concentrations in the lysate were measured using ICP-MS (Agilent 8900, singleQuad, integr. Time 0.3 s, no gas, 5 replicates, Gd m/z 157, Tb m/z 159). As a reference standard RC1 is used in the same well plate. The hepatocyte uptake of the test compound is calculated relative to RC1 (resulting in the unit % of RC1).
smiles,measurement,setting,value
"CCOc1ccc(CC2CN(CC(=O)[O-])CCN(CC(=O)[O-])CCN(CC(=O)O)CCN2CC(=O)[O-])cc1.[Gd+3] (centres unmarked) [Example 7, Gadolinium-2,2',2""-[10-(carboxymethyl)-2-(4-ethoxybenzyl)-1,4,7,10-tetraazacyclododecane-1,4,7-triyl]triacetate]",Inhibition Rifampicine,OATP1B1,78 % inhibition
same,NOAEL,[1],1.50 mmol Gd/kg bw
same,r1 human plasma,[2]; human plasma,6.2 L/mmol/s
same,r1 water,[2]; water,4.5 L/mmol/s
same,Solubility,[3],> 403 mM
same,"Stability (transmetallation stability, T1 relaxation rates R1n/R10)",[4],98%
same,Inhibition Rifampicine,OATP1B3,95 % inhibition
same,Inhibition Rifampicine,[5],96 % inhibition
